Laboratory results from patent EP4599821A1, “CANNABIDIOL-COMPRISING LIPOSOMES” (Novozymatic BV, priority 2024, dated 2025).

Legend:
[1] = cited from earlier work
[2] = Visual appearance of diluted reference and intravenous CBD formulations; type: physicochemical
Text: As a control for the CBD granules, a commercial product was used, namely Epidyolex.
When comparing the two solutions, the second approach qualified as a suitable injectable formulation for the rat study.

Compound: C=C(C)[C@@H]1CCC(C)=C[C@H]1c1c(O)cc(CCCCC)cc1O [CBD, cannabidiol]
- Cmax (maximum concentration) ([1]; 20 mg of orally delivered CBD/THC sprayed onto a gelatin capsule): 2.4 ng/mL
- Time to peak plasma concentration ([1]; oral delivery): 1 to 4 h
- visual appearance of intravenous formulation ([2]; first approach: 50 mg/ml in 95% ethanol, diluted to 1 mg/ml in 96% saline and 2% polysorbate 80): formation of fat drops
- visual appearance of intravenous formulation ([2]; second approach: 50 mg/ml in 1:1 ethanol: polysorbate 80, diluted to 1 mg/ml in 98% saline, 10 or 20 min rest): no fat drops and no sediment were observed
